Assay results published in US20260216163A1, “CANCER COMBINATION THERAPY INCLUDING A FLT3-INHIBITOR” (RYVU THERAPEUTICS S.A., priority 2022, published 2026).
Where two headings read alike, the source gives them in different places.

Legend:
MOLM-13 cells (FLT3 ITD) = test: in vitro standard cytotoxicity (MTS, 72 h), MEN and Gilt single agent or combination, Combination Index; type: cell-based, human; details: MTS (Table 2); for IC50: Homo sapiens, read-out: IC50 dose level (single agent cytotoxicity)
Description: (§1) In an in vitro standard cytotoxicity experiment, two AML cell lines (MV4-11 [FLT3 ITD] and MOLM-13 [FLT3 ITD]) were treated for 72 hours with MEN and Gilt (a Type I inhibitor) either as a single agent or in combination.
(§2) Human acute myeloid leukemia cell lines MV4-11 and MOLM-13 were obtained from DSMZ, Braunschweig, Germany (ACC102 and ACC554). […] All cells were incubated at 37° C., 5% CO2, 80% relative humidity.

MV4-11 cells (FLT3 ITD) = test: as above; type: cell-based, human; details: for IC50: Homo sapiens, read-out: IC50 dose level (single agent cytotoxicity)
Description: as §1, §2

[1] = test system: KG-1 cells (FLT wildtype); test: as above; type: cell-based, human; details: for IC50: Homo sapiens
Excerpt: Human acute myeloid leukemia cell line KG-1 was obtained from DSMZ, Braunschweig, Germany (ACC14).

[2] = test system: MV4-11 (FLT3 ITD) cell line xenograft; test: in vivo AML xenograft study, tumor volume inhibition; details: MV4-11 xenograft, per os from day 19, MEN 25 mg/kg Q1 × 14 d, Gilteritinib 3 mg/kg Q1 × 22 d, combination each as above
Description: For the AML xenograft model, 10×10^6 MV4-11 cells were re-suspended in 0.2 ml of BME type III (Trevigen) at 5.6 mg/ml+DPBS (1:1) and then injected subcutaneously into the right flank of 6-8 weeks old female SCID mice (Charles River, Calco, Italy).
After injection, mice were maintained in micro isolator cages under continuously monitored environmental conditions. Drinking water and specific sterilized diet (VRF1, Charles River) were supplied ad libitum. […] Twice a week, tumor growth and body weight were evaluated and recorded.
(§3) The outcome evaluation was carried out as follows: tumor volumes were measured by caliper, and tumor masses were calculated using the following formula: [length (mm)×width^2 (mm)×d]/2, assuming density, d=1 mg/mm^3 for tumor tissue (Teicher B. Totowa, 1997).
The treatment efficacy was assessed as TVI % in treated versus control mice, using the following formula: TVI %=(1−Volume Average of treated tumor mass/Volume Average of control tumor)*100.
Mice were sacrificed when tumors reached a volume of around 10% of total body weight or when mice's body weight decreased by more than 20% compared to control animals for 7 days or more. Animals were euthanized with carbon dioxide exposure according to the standard procedures (Annex IV of Directive 2010/63/EU; 2010).
GraphPad Prism software (GraphPAD Software Inc., California) was used for statistical analysis. Statistical differences were considered to be significant at p-value<0.05 using the two-tailed Mann-Whitney rank test.

[3] = test system: MOLM-13 (FLT3 ITD) cell line xenograft; test: as above; details: MOLM-13 xenograft, per os from day 15, MEN 25 mg/kg Q1 × 14 d, Gilteritinib 3 mg/kg Q1 × 14 d, combination each as above
Description: For the AML xenograft model, 10×10^6 MOLM-13 cells were re-suspended in 0.2 ml of BME type III (Trevigen) at 5.6 mg/ml+DPBS (1:1) and then injected subcutaneously into the right flank of 6-8 weeks old female CD-1 mice (Charles River, Calco, Italy).
After injection, mice were maintained in micro isolator cages under continuously monitored environmental conditions. Drinking water and specific sterilized diet (VRF1, Charles River) were supplied ad libitum. Environmental conditions, as well as the procedures for housing and handling the animals, complied with the UKCCCR guideline (Workman P et al., 2010) and the European Convention for the protection of vertebrate animals used for experimental and other scientific purposes (Directive 2010/63/EU; 2010). Twice a week, tumor growth and body weight were evaluated and recorded.
as §3
The treatment efficacy was assessed as TVI % in treated versus control mice, using the following formula: TVI %=(1−Volume Average of treated tumor mass/Volume Average of control tumor)*100. […]

MOLM-13 cells [4] = test: in vitro standard cytotoxicity (MTS, 72 h), MEN and Quizartinib single agent or combination, Combination Index; details: for IC50: Homo sapiens, MOLM-13, 72 h, read-out: IC50 (single agent cytotoxicity)
Description: (§4) The synergistic effect of the combination was measured according to the Combination Index calculation (Chou T C, 2006).
(§5) MOLM-13 cells were grown in RPMI with 20% FBS and incubated at 37° C., 5% CO2, 80% relative humidity.
(§6) 20907) were dissolved in DMSO, divided into aliquots and stored at −80° C. until use. Stock solutions were added at appropriate concentration in culture medium before the addition to cells.
(§7) For cytotoxicity studies cells were seeded at appropriate density (50.000 cells/well) prior to addition of MEN and Quiz at day 0. […] After 72 hours, CellTiter 96 Aqueous One Solution Reagent (MTS) (Promega, Madison. WI, USA) was added to assess the cell viability. Fluorescence was measured 4 h later using Tecan Infinite M200 (Tecan Trading AG, Switzerland), recording absorbance at 490 nm. Quantitative measurement of synergism/antagonism was evaluated with Combination Index (CI) on the Fraction affected (Fa) using CompuSyn (ComboSyn, Inc. Paramus, NJ, USA) (Chou T C, 2006).

MOLM-13 cells [5] = test system: MOLM-13 cells
Description: as §4, §5, §6, §7

[6] = MOLM-13 cells, 72 h, MTS (Table 5)

How did the IC50 (MOLM-13 cells (FLT3 ITD)) turn out when `CCc1nc(C(N)=O)c(Nc2ccc(N3CCC(N4CCN(C)CC4)CC3)c(OC)c2)nc1NC1CCOCC1` [Gilteritinib] was run?
Its IC50 is 11 nM.

What about the “IC10 dose level (single agent cytotoxicity)” value (shortened to “IC10 dose level”) (MOLM-13 cells (FLT3 ITD)) of the same molecule?
Its value is 1.4 nM.

And the “IC25 dose level (single agent cytotoxicity)” value (“IC25 dose level” below) (MOLM-13 cells (FLT3 ITD))?
Its value is 4 nM.

And the “IC75 dose level (single agent cytotoxicity)” value (from here on “IC75 dose level”) (MOLM-13 cells (FLT3 ITD))?
Its value is 32 nM.

And the “IC10 dose level” value (MV4-11 cells (FLT3 ITD))?
The value was 2.2 nM.

What about the “IC25 dose level” value (MV4-11 cells (FLT3 ITD)) of the same molecule?
Its value is 4.2 nM.

What about the “IC75 dose level” value (MV4-11 cells (FLT3 ITD)) of the same molecule?
The value was 14 nM.

What about the IC50 (MV4-11 cells (FLT3 ITD)) of the same molecule?
Its IC50 is 7.9 nM.

What about the “IC10 (single agent cytotoxicity)” value [1] of the same molecule?
Its value is 35.34 nM.

What about the “IC25 (single agent cytotoxicity)” value [1] of the same molecule?
The value was 150.2 nM.

What about the “IC75 (single agent cytotoxicity)” value [1] of the same molecule?
Its value is 2712 nM.

And the IC50 [1]?
The IC50 was 638 nM.

What about the “TVI % Day 33” value [2] of the same molecule?
Its value is 84.1%.

And the “TVI % Day 40” value [2]?
The value was 87.6%.

What about the “TVI % Day 29” value [3] of the same molecule?
The value was 60.1%.

How did the IC50 (MOLM-13 cells (FLT3 ITD)) turn out when `CC(C)n1c(C2CCNCC2)nc2c([N+](=O)[O-])c(Br)c(Br)cc21` [MEN, 5,6-dibromo-4-nitro-2-(piperidin-4-yl)-1-(propan-2-yl)-1H-1,3-benzodiazole] was run?
Its IC50 is 510 nM.

What about the “IC10 dose level” value (MOLM-13 cells (FLT3 ITD)) of the same molecule?
The value was 87 nM.

What about the “IC25 dose level” value (MOLM-13 cells (FLT3 ITD)) of the same molecule?
The value was 210 nM.

What about the “IC75 dose level” value (MOLM-13 cells (FLT3 ITD)) of the same molecule?
The value was 1230 nM.

And the “IC10 dose level” value (MV4-11 cells (FLT3 ITD))?
Its value is 151 nM.

What about the “IC25 dose level” value (MV4-11 cells (FLT3 ITD)) of the same molecule?
The value was 293 nM.

And the “IC75 dose level” value (MV4-11 cells (FLT3 ITD))?
Its value is 1103 nM.

What about the IC50 (MV4-11 cells (FLT3 ITD)) of the same molecule?
The IC50 was 569 nM.

What about the “IC10 (single agent cytotoxicity)” value [1] of the same molecule?
The value was 57.48 nM.

What about the “IC25 (single agent cytotoxicity)” value [1] of the same molecule?
Its value is 203 nM.

What about the “IC75 (single agent cytotoxicity)” value [1] of the same molecule?
The value was 2530 nM.

And the IC50 [1]?
Its IC50 is 717 nM.

What about the “TVI % Day 33” value [2] of the same molecule?
Its value is 57.2%.

And the “TVI % Day 40” value [2]?
The value was 53.1%.

And the “TVI % Day 29” value [3]?
Its value is 38.8%.

What about the IC50 (MOLM-13 cells [4]) of the same molecule?
Its IC50 is 510 nM.

What about the “IC10 (single agent cytotoxicity)” value (MOLM-13 cells [4]; [6]) of the same molecule?
Its value is 87.29 nM.

What about the “IC25 (single agent cytotoxicity)” value (MOLM-13 cells [4]; [6]) of the same molecule?
The value was 322.2 nM.

What about the “IC75 (single agent cytotoxicity)” value (MOLM-13 cells [4]; [6]) of the same molecule?
Its value is 1234 nM.

What does the source list for `CC(C)(C)c1cc(NC(=O)Nc2ccc(-c3cn4c(n3)sc3cc(OCCN5CCOCC5)ccc34)cc2)no1` [QUIZ, Quizartinib]?
IC10 (single agent cytotoxicity) (MOLM-13 cells [5]): 0.374 nM; IC25 (single agent cytotoxicity) (MOLM-13 cells [5]): 0.595 nM; IC75 (single agent cytotoxicity) (MOLM-13 cells [5]): 1.504 nM; IC50 (MOLM-13 cells [4]): 0.946 nM
